We go through 5 molecules from patent US20190169218A1, “AMPHIPATHIC COMPOUND HAVING NOVEL PENTA-SACCHARIDE HYDROPHILIC GROUP AND USE THEREOF” (Industry-University Cooperation Foundation Hanyang …, priority 2016, published 2019).

The structures appear in SMILES notation.

Data set [1] is described as follows: critical micelle concentration (CMC) by hydrophobic fluorescent staining with diphenylhexatriene (DPH). It is filed as physicochemical. The method in brief: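 CMC determined by hydrophobic fluorescent staining with diphenylhexatriene (DPH); micelle hydrodynamic radius measured separately by dynamic light scattering at 1.0 wt %, with DDM as reference detergent.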

Data set [2] concerns the target T1, Salmonella typhimurium melibiose permease (MelB) (Salmonella typhimurium, UniProt P30878).
T1 construct: made in house; host or cells: DW2 cells (melB and lacZY), Salmonella typhimurium DW2; plasmid pK95AHB/WT MelBst/CH10
Put plainly: MelB extraction efficiency and thermal stability by SDS-PAGE and western immunoblotting. The settings on record: 1.5 wt %; for MelB extraction efficiency: 0° C., 90 minutes (similar results at 45° C.); for solubilized MelB remaining in solution: 90 minutes. The procedure:
The ability of PSAs or PSEs to extract (solubilize) MelBst (Salmonella typhimurium melibiose permease) proteins and stabilize the structures thereof was measured. MelB proteins were extracted using PSAs, PSEs or DDM, and the amount of the extracted proteins and structural stability thereof were quantitatively analyzed by SDS-PAGE and western immunoblotting. The protein extraction efficiency and thermally stabilizing ability of the amphipathic compounds were simultaneously evaluated by extracting MelB proteins at four temperatures (0, 45, 55 or 65° C.) for 90 minutes using the amphipathic compounds at a concentration of 1.5 wt %.
Specifically, according to the method described in the journal article (P. S. Chae, et al., Chemistry. 2013, 19, 15645-15651.) published by the present inventors, proteins (MelBst) were produced using a plasmid pK95AHB/WT MelBst/CH10 containing a gene construct encoding wild-type MelB having 10×His tags at the C-terminus and Salmonella typhimurium DW2 cells (melB and lacZY). According to the method described in the journal article (A. S. Ethayathulla et al., Nat. Commun. 2014, 5, 3009), cells were cultured and the cell membranes were obtained from the cultured cells. Protein analysis was performed using a Micro BCA kit (Thermo Scientific, Rockford, Ill.). To measure solubilization/stability, membrane samples (the final concentration of membrane proteins was 10 mg/mL) containing MelBst were mixed with a solubilization buffer solution (20 mM sodium phosphate, pH 7.5, 200 mM NaCl, 10% glycerol and 20 mM melibiose) containing DDM, PSAs (PSA-C11) or PSEs (PSE-C9, PSE-C11, PSE-C13) at a concentration of 1.5% (w/v). Extracts were incubated at four different temperatures (0, 45, 55 and 65° C.) for 90 minutes. Fractions were removed by ultracentrifugation at 355,590 g for 45 minutes using a Beckman Optima™ MAX ultracentrifuge equipped with a No. 4 TLA-100 rotor. 20 μg of proteins was separated using a 15% SDS-PAGE gel. Next, immunoblotting was performed using Penta-His-HRP antibodies (Qiagen, Germantown, Md.). After performing SDS-PAGE and immunoblotting, the amount of solubilized MelB was quantitated and expressed as a percentage of the amount of MelB measured in the control group.
(In general: A western blot detects proteins with antibodies after separation by electrophoresis.)

Data set [3] concerns the target T2, human β2 adrenergic receptor (β2AR) (Homo sapiens, UniProt P07550).
T2 construct: Flag; made in house
Put plainly: negative staining electron microscopy (EM) of purified β2AR. On the procedure: Electron microscopy (EM) analysis was performed on β2ARs solubilized in PSAs and PSEs.
Specifically, electron microscopy (EM) analysis was performed as follows. Samples were prepared using a conventional negative staining protocol (see Peisley, A. et al., G Protein-Coupled Receptors in Drug Discovery: Methods and Protocols, Methods in Molecular Biology, 1335, 29-38 (2015)). Briefly, 3 μL of β2ARs purified in DDM or the novel amphipathic compounds (PSA-C11, PSE-C11 and PSE-C13) was added into a glow-discharged carbon-coated grid by pipetting and stained with 1% (w/v) uranyl formate. Imaging was performed by operating a Morgagni 268 (D) transmission electron microscope (FEI Company) at 100 kV at room temperature. Images were recorded with an Orius SC200W CCD camera (Gatan Inc.) at a 30,416×magnification.

T2 sequence (P07550 whole entry): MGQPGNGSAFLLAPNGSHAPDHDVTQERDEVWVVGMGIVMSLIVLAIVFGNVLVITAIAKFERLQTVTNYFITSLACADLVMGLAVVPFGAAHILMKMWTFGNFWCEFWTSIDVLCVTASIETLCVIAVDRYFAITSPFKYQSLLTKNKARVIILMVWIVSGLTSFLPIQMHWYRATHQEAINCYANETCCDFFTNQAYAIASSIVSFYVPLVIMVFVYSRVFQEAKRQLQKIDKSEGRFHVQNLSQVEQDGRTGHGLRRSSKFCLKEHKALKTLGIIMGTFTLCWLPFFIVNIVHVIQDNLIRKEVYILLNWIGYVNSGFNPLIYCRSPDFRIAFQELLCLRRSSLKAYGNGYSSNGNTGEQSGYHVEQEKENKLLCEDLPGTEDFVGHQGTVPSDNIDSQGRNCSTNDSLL
T1 sequence (P30878 whole entry): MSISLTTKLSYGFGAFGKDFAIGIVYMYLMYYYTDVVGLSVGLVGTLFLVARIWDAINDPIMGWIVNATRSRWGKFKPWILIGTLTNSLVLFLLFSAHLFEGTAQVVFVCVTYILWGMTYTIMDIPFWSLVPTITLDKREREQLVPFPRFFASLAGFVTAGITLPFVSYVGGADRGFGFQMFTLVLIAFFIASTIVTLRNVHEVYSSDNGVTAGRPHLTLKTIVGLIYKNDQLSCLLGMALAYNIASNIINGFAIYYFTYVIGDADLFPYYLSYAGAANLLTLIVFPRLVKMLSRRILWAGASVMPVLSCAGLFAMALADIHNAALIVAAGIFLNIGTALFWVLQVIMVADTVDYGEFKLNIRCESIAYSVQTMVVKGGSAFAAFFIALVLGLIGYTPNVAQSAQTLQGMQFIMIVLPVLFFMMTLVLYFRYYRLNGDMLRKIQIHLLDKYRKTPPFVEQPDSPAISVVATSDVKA

As to `CCCCCCCCCCCC(CCCCCCCCCCC)CO[C@@H]1OC(CO[C@@H]2OC(CO)[C@@H](O)C(O)C2O)[C@@H](O[C@@H]2OC(CO)[C@@H](O)C(O)C2O)C(O[C@@H]2OC(CO)[C@@H](O)C(O)C2O)C1O[C@@H]1OC(CO)[C@@H](O)C(O)C1O` (stereo partly drawn) [PSA-C11], in data set [1], the “CMC” value is about 0.007 mM and the “CMC (wt %)” value is about 0.0008 wt %. The MelB extraction efficiency entry in data set [2] is on record as “extracted at an efficiency similar to the efficiency observed in the case of DDM”. In addition, the “solubilized MelB remaining in solution” value in data set [2] (55° C.) is listed as “remained dissolved in the solution”. For the same molecule, the “agglutinated proteins in negative staining EM images of β2AR” value (“agglutinated proteins” for short) in data set [3] is recorded as “the agglutinated proteins were hardly observed”.

Consider `CCCCCCCCOCC(COCCCCCCCC)(COCCCCCCCC)CO[C@@H]1OC(CO[C@@H]2OC(CO)[C@@H](O)C(O)C2O)[C@@H](O[C@@H]2OC(CO)[C@@H](O)C(O)C2O)C(O[C@@H]2OC(CO)[C@@H](O)C(O)C2O)C1O[C@@H]1OC(CO)[C@@H](O)C(O)C1O` (stereo partly drawn) [TPS-E8], for which, in data set [1], the “CMC” value was about 0.007 mM and the “CMC (wt %)” value was about 0.0009 wt %.

`CCCCCCCCCCCCCOCC(COCCCCCCCCCCCCC)O[C@@H]1OC(CO[C@@H]2OC(CO)[C@@H](O)C(O)C2O)[C@@H](O[C@@H]2OC(CO)[C@@H](O)C(O)C2O)C(O[C@@H]2OC(CO)[C@@H](O)C(O)C2O)C1O[C@@H]1OC(CO)[C@@H](O)C(O)C1O` (stereo partly drawn) [PSE-C13]: in data set [1], the “CMC” value was about 0.001 mM and the “CMC (wt %)” value is reported as about 0.0001 wt %. In data set [2] (55° C.), the “solubilized MelB remaining in solution” value is reported as “remained dissolved in the solution”. Besides, in data set [3], the “agglutinated proteins” value was “the amount of the agglutinated proteins was small”.

With `CCCCCCCCCCCCO[C@@H]1O[C@H](CO)[C@@H](O[C@H]2O[C@H](CO)[C@@H](O)[C@H](O)[C@H]2O)[C@H](O)[C@H]1O` [DDM, n-dodecyl-β-D-maltopyranoside, reference compound], in data set [1], the “CMC” value was about 0.17 mM and the “CMC (wt %)” value is about 0.0087 wt %. Further, the “solubilized MelB remaining in solution” value in data set [2] (55° C.) is “disappeared in the solution”. Further, the “agglutinated proteins” value in data set [3] was “many agglutinated proteins were observed”.

For `CCCCCCCCCCCOCC(COCCCCCCCCCCC)O[C@@H]1OC(CO[C@@H]2OC(CO)[C@@H](O)C(O)C2O)[C@@H](O[C@@H]2OC(CO)[C@@H](O)C(O)C2O)C(O[C@@H]2OC(CO)[C@@H](O)C(O)C2O)C1O[C@@H]1OC(CO)[C@@H](O)C(O)C1O` (stereo partly drawn) [PSE-C11], the “CMC” value in data set [1] is about 0.004 mM. Also, the “CMC (wt %)” value in data set [1] was about 0.0005 wt %. Moreover, the MelB extraction efficiency result in data set [2] is listed as “extracted at an efficiency similar to the efficiency observed in the case of DDM”. The “solubilized MelB remaining in solution” value is “remained dissolved in the solution” in data set [2] (55° C.) and “a small amount of dissolved MelB was observed” in data set [2] (65° C.). The “agglutinated proteins” value in data set [3] is on record as “the agglutinated proteins were hardly observed”.
